Marks after values point to notes of the source that are not given here. Values belong to the compound of their own block, whether it stands above or below them.
Tests used:
[1] = Mechanism-based pharmacokinetic modeling (MBPK) of DcNP associated and dissociated GT; design: species or system mice; settings: for V, DcNP Dissociated Parameter: fitted to CrEL data
Excerpt: Briefly, the model adopted here for GT is composed of two sub-models representing DcNP-associated drug and dissociated drug species. Each sub-model has a central compartment and a peripheral compartment. The observed plasma concentration is the sum of DcNP-associated and dissociated species since they cannot be measured separately. […] These parameters were then fixed and the linked sub-models were fitted to the observed total concentrations for G and T obtained after injection of the DcNP-dose. The model reasonably assumed that the pharmacokinetics of drugs released from particles will be the same as that of the free-drug (CrEL) control. It was assumed that G and T are released from the particle at independent rates (k1,3) in the central compartment and only dissociated drugs are subject to clearance from the system (k0,1). […] The peripheral compartment features purely drug exchange between plasma and a group of slowly equilibrating tissues (k4,3, k3,4). In other words, the DcNP-associated drug is cleared only via its release from the particles in the central compartment. […] MBPK modeling and parameter estimations were performed using SAAM II v2.3.
To further understand the effect of DcNP on the pharmacokinetic behavior of GT, a mechanism-based pharmacokinetic model (MBPK) was used to simulate the time course of DcNP-associated and dissociated drugs in plasma. The MBPK model adapted for GT-DcNPs is based on a validated MBPK model developed for long-acting HIV drug combination nanoparticles tested in non-human primates. Experimentally, the total drug concentrations in plasma (i.e., DcNP-associated plus dissociated) can be measured, but DcNP-associated and dissociated drugs could not be distinguished. […] The MBPK model presented in FIG. 4 utilizes data from both DcNP and CrEL control formulation treated animals to estimate plasma concentrations of DcNP-associated and dissociated drug species over time and their respective time-averaged fractions in vivo. After intravenous administration as a DcNP, GT can theoretically exist in at least two species: DcNP-associated drug and dissociated drug. The latter can be reasonably assumed to distribute and be cleared as free G and T after administration of CrEL control formulation.
Individual distribution, metabolism and elimination of G and T are well characterized. […] T is metabolized in the liver primarily by CYP3A4 and CYP2C8 with subsequent excretion of metabolites into the bile. In this model, the k0,1 term represents the aggregate elimination processes of G and T through their independent described pathways. A peripheral compartment for both G and T was added and distribution was parameterized with the k1,2 and k2,1 terms. […] With these assumptions in place, the k1,3 term was set to link the two sub-models and represent the release mechanism of drug from DcNP into the central compartment. The DcNP associated species of G and T was then parameterized with the k4,3 and k3,4 to account for distribution.

[2] = tested on: K-562 cells; test: Leukemic cell uptake of free versus DcNP-associated drug, K-562; assay type: cell-based, human
Experimental: FIGS. 13A-13D are a series of graphs showing the intracellular drug concentrations following incubation with free or DcNP-bound drug. Three leukemic cell lines were incubated with either free or DcNP-bound drug over four hours, and intracellular drug concentration was measured via LC-MS/MS. Both free drugs show relatively little drug uptake compared to the DcNP formulation. Free drug concentrations are roughly a quarter of the DcNP drug concentrations.
To quantify drug concentrations (both DcNP-bound and free drug), an extraction protocol was established to quantify venetoclax and zanubrutinib. In short, drug was solubilized by diluting the sample into ethyl acetate, liberating it from either the DcNP lipid matrix, mouse plasma, or both. Following centrifugation to remove organic material, the samples were dried with nitrogen gas, reconstituted in acetonitrile, and loaded onto an LC-MS/MS. Drug concentrations were quantified by comparing sample data with standard curves prepared from untreated mouse plasma spiked with known amounts of drug.
Separations were carried out on a Synergi column (100×2.0 mm) (Phenomenex, Torrance, USA). A C8 guard column (4.0×2.0 mm) was used (Phenomenex, USA). The separations were done under ambient temperature, and the flow rate was set to 0.55 ml/min. The mobile phase for the separations consisted of buffers A (water with 20 mM ammonium acetate) and B (acetonitrile). The single mobile phase ran for five minutes, and it consisted of 25% buffer A and 75% buffer B.
HL-60 cells were cultured, counted, and aliquoted into multiple 1.5 mL Eppendorf tubes. A free drug solution of ABT-199 and BGB-3111 (1:1 w/w) was added to half of the tubes, while a DcNP solution of identical drug concentrations was added to the second half of tubes. The cells in the tubes were then allowed to incubate normally. At preselected time points, one incubation tube from each group was removed from the incubator, and the cells inside were washed twice with media to remove external drug and DcNP's. Cells were then lysed with acetonitrile, and drug concentrations were quantified according to the aforementioned extraction and LC-MS/MS protocol.

[3] = model derived, single IV dose in GT DcNP dosage form
[4] = model derived, single IV dose in GT DcNP dosage form, listed as G
[5] = K-562, incubation with free drug

Compound: Nc1ccn([C@@H]2O[C@H](CO)[C@@H](O)C2(F)F)c(=O)n1 [Gemcitabine, 4-amino-1-[(2R,4R,5R)-3,3-difluoro-4-hydroxy-5-(hydroxymethyl)oxolan-2-yl]pyrimidin-2-one]
decrease of estimated volume of central compartment, DcNP compared to CrEL [1]: 4.6 times | release parameter (k1,3) of G lower than T ([1]; GT DcNP): 9.5 fold | K0,1, DcNP Dissociated Parameter [1, 3]: 3.9 ± 0.9 h⁻¹ | K1,2, DcNP Dissociated Parameter [1, 3]: 0.5 ± 0.2 h⁻¹ | K1,3 (release parameter), DcNP Associated Parameter [1, 3]: 0.2 ± 0.02 h⁻¹ | K2,1, DcNP Dissociated Parameter [1, 3]: 0.2 ± 0.1 h⁻¹ | K3,4, DcNP Associated Parameter [1, 3]: 0.6 ± 0.1 h⁻¹ | K4,3, DcNP Associated Parameter [1, 3]: 1.8 ± 0.5 h⁻¹ | VDcNP, DcNP Associated Parameter [1, 3]: 5.2 ± 0.6 mL | V, DcNP Dissociated Parameter [1, 3]: 24 ± 12 mL | V, DcNP Dissociated Parameter [1, 4]: 24 mL | K1,3 (release parameter), DcNP Associated Parameter [1, 4]: 0.2 h⁻¹ | VDcNP, DcNP Associated Parameter [1, 4]: 5.2 mL

Compound: CC(=O)O[C@H]1C(=O)[C@@]2(C)[C@H]([C@H](OC(=O)c3ccccc3)[C@]3(O)C[C@H](OC(=O)[C@H](O)[C@@H](NC(=O)c4ccccc4)c4ccccc4)C(C)=C1C3(C)C)[C@]1(OC(C)=O)CO[C@@H]1C[C@@H]2O [Paclitaxel, [(1S,2S,3R,4S,7R,9S,10S,12R,15S)-4,12-diacetyloxy-15-[(2R,3S)-3-benzamido-2-hydroxy-3-phenylpropanoyl]oxy-1,9-dihydroxy-10,14,17,17-tetramethyl-11-oxo-6-oxatetracyclo[11.3.1.0^3,10.0^4,7]heptadec-13-en-2-yl] benzoate]
VDcNP, DcNP Associated Parameter [1, 3]: 0.8^a mL

peak intracellular drug concentration ([2]; K-562, incubation with DcNP's): 647 ng/million cells | peak intracellular drug concentration [2, 5]: 192 ng/million cells
Compound: CC1(C)CCC(CN2CCN(c3ccc(C(=O)NS(=O)(=O)c4ccc(NCC5CCOCC5)c([N+](=O)[O-])c4)c(Oc4cnc5[nH]ccc5c4)c3)CC2)=C(c2ccc(Cl)cc2)C1 [Venetoclax, 4-[4-[[2-(4-chlorophenyl)-4,4-dimethylcyclohexen-1-yl]methyl]piperazin-1-yl]-N-[3-nitro-4-(oxan-4-ylmethylamino)phenyl]sulfonyl-2-(1H-pyrrolo[2,3-b]pyridin-5-yloxy)benzamide]

peak intracellular drug concentration ([2]; K-562, incubation with DcNP's): 647 ng/million cells | peak intracellular drug concentration [2, 5]: 109 ng/million cells
Compound: C=CC(=O)N1CCC([C@@H]2CCNc3c(C(N)=O)c(-c4ccc(Oc5ccccc5)cc4)nn32)CC1 [Zanubrutinib, (7S)-2-(4-phenoxyphenyl)-7-(1-prop-2-enoylpiperidin-4-yl)-4,5,6,7-tetrahydropyrazolo[1,5-a]pyrimidine-3-carboxamide]

From patent publication US20230113802A1, “COMPOSITION AND METHOD TO PREPARE LONG-ACTING INJECTABLE SUSPENSION CONTAINING MULTIPLE CANCER DRUGS” (University of Washington, priority 2020, published 2023)
